Results from ChEMBL document CHEMBL1201862, “PubChem BioAssay data set” (2004).
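Dose response: 5 concentrations. Exposure: 48 h. Format: 96-well plates. Endpoint: linear interpolation; highest concentration if not reached. GI50 = concentration required for 50% inhibition of growth.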 Activity calls are given as the source filed them. No stated cut-off is given here; in the data, active = GI50 up to about 1.1 µM and inactive = higher.

Legend:
Experiment in all cases: growth of human tumour cells (NCI), 48 h
ACHN = test system: ACHN
CCRF-CEM = test system: CCRF-CEM
HOP-92 = test system: HOP-92
HT-29 = test system: HT-29
KM12 = test system: KM12
Malme-3M = test system: Malme-3M
NCI-H460 = test system: NCI-H460
OVCAR-3 = test system: OVCAR-3
OVCAR-4 = test system: OVCAR-4
SF-268 = test system: SF-268
SF-539 = test system: SF-539
SK-MEL-28 = test system: SK-MEL-28
SK-MEL-5 = test system: SK-MEL-5
SR = test system: SR
U-251 = test system: U-251
NCI-H522 = test system: NCI-H522

Measured: GI50

CC(CC[C@@H](C)C1CCC2[C@@H]3CC(O)C4CC(O)[C@@H](O)C[C@]4(C)C3CC[C@@]21C)C(C)(C)C (stereo partly drawn)
inactive: ACHN > 100 µM | CCRF-CEM > 100 µM | HOP-92 > 100 µM | HT-29 > 100 µM | KM12 > 100 µM | Malme-3M > 100 µM | NCI-H460 > 100 µM | OVCAR-3 > 100 µM | OVCAR-4 > 100 µM | SF-268 > 100 µM | SF-539 > 100 µM | SK-MEL-28 > 100 µM | SK-MEL-5 > 100 µM | SR > 100 µM | U-251 > 100 µM

CC(=O)OCc1c2ccccc2c(C)c2c1cc(F)c1ccccc12
inactive: ACHN 17.5 µM | CCRF-CEM 12.2 µM | HOP-92 40.6 µM | HT-29 17.7 µM | KM12 > 100 µM | Malme-3M 52.2 µM | NCI-H522 12.2 µM | OVCAR-3 22.9 µM | OVCAR-4 24.2 µM | SF-268 29.8 µM | SF-539 23.8 µM | SK-MEL-28 97.5 µM | SK-MEL-5 25.5 µM | SR 12.6 µM | U-251 23.7 µM

CCOC(=O)/C(=C\c1ccc(OCc2ccccc2)c(OC)c1)C(=O)c1ccccc1
inactive: ACHN 18.1 µM | CCRF-CEM 23.6 µM | KM12 19.5 µM | Malme-3M 16.7 µM | NCI-H522 17.7 µM | OVCAR-3 22 µM | OVCAR-4 36 µM | SF-539 16.7 µM | SK-MEL-28 14.6 µM | SK-MEL-5 17.9 µM | SR 33 µM | U-251 17.3 µM

O=C1OC(Cc2ccccc2)(N2CCCC2=O)C1c1ccccc1 (stereo not drawn)
inactive: ACHN 75.2 µM | CCRF-CEM 43.9 µM | HOP-92 62.8 µM | HT-29 > 100 µM | KM12 74.8 µM | Malme-3M > 100 µM | NCI-H460 > 100 µM | NCI-H522 48.2 µM | OVCAR-3 > 100 µM | OVCAR-4 > 100 µM | SF-268 > 100 µM | SK-MEL-28 > 100 µM | SK-MEL-5 51.5 µM | SR 56.4 µM | U-251 44.7 µM

CC(=O)C(CN(C(C)C)C(C)C)C(c1ccccc1)c1c(O)c2ccccc2oc1=O (stereo not drawn)
inactive: ACHN > 100 µM | CCRF-CEM > 100 µM | HT-29 > 100 µM | KM12 > 100 µM | Malme-3M > 100 µM | NCI-H460 > 100 µM | NCI-H522 > 100 µM | OVCAR-3 > 100 µM | OVCAR-4 > 100 µM | SF-268 > 100 µM | SF-539 > 100 µM | SK-MEL-28 > 100 µM | SK-MEL-5 > 100 µM | SR > 100 µM | U-251 56.2 µM

Cc1ccc(S(=O)OC23CC4CC(CC(C4)C2)C3)cc1 (stereo not drawn)
inactive: ACHN > 100 µM | HOP-92 > 100 µM | HT-29 > 100 µM | KM12 > 100 µM | Malme-3M > 100 µM | NCI-H460 > 100 µM | NCI-H522 30.5 µM | OVCAR-3 > 100 µM | OVCAR-4 > 100 µM | SF-268 86.1 µM | SF-539 > 100 µM | SK-MEL-28 > 100 µM | SK-MEL-5 > 100 µM | SR 35.7 µM | U-251 36.8 µM

COc1ccc(C2=C(Cl)c3cc(OC)c(OC)cc3C2)cc1OC
inactive: ACHN > 100 µM | CCRF-CEM > 100 µM | HOP-92 > 100 µM | HT-29 > 100 µM | Malme-3M > 100 µM | NCI-H522 > 100 µM | OVCAR-4 > 100 µM | SF-268 > 100 µM | SF-539 > 100 µM | SK-MEL-28 > 100 µM | SK-MEL-5 > 100 µM | SR > 100 µM | U-251 > 100 µM

CC(=O)N1CCN(c2ccc(OCC3COC(Cn4ccnc4)(c4ccc(Cl)cc4Cl)O3)cc2)CC1 (stereo not drawn) [KETOCONAZOLE]
inactive: ACHN 36.2 µM | CCRF-CEM 27.6 µM | HOP-92 41.7 µM | HT-29 18.9 µM | KM12 30.6 µM | Malme-3M 28.8 µM | NCI-H460 32.5 µM | NCI-H522 25.6 µM | OVCAR-3 28.1 µM | OVCAR-4 39.1 µM | SK-MEL-28 34.6 µM | SK-MEL-5 12.2 µM | SR 20.2 µM

COc1ccc(Cn2c(C)nc3c2C(=O)c2ccccc2C3=O)cc1
inactive: ACHN 10.3 µM | CCRF-CEM 4.05 µM | HT-29 4.94 µM | KM12 5.31 µM | Malme-3M 9.46 µM | NCI-H460 2.38 µM | NCI-H522 6.01 µM | OVCAR-3 9.84 µM | OVCAR-4 15.5 µM | SF-268 4.49 µM | SF-539 3.81 µM | SK-MEL-28 21 µM | SK-MEL-5 7.71 µM | SR 1.44 µM | U-251 6.32 µM
